molecular target: T1, human DP2 (Homo sapiens, UniProt Q9Y5Y4); experiment: DP-2 binding inhibition assay (3H-PGD2, membranes of DP2-expressing K562 cells); conditions: 0.1% BSA, read-out: EC50 (nM) 0.1% BSA
T1 construct: expressed in transfected cells; membranes prepared
T1 sequence (Q9Y5Y4 1-395): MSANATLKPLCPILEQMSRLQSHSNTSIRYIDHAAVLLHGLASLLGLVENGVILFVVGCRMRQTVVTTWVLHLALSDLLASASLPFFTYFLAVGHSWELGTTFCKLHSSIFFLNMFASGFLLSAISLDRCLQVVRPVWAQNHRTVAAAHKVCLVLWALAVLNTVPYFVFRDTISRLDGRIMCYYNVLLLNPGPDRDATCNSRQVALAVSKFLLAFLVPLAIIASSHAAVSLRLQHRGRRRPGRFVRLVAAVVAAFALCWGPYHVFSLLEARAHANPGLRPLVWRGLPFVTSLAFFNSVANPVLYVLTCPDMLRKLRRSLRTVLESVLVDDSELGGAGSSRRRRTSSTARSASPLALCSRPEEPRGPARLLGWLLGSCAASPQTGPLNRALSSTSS
Procedure, shortened: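 Membranes from K562 clones stably expressing human DP2 were incubated 60 min at room temperature with 3H-PGD2 and compound, with 0.1% BSA, 1% HSA or 4% HSA, then filtered and counted.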

| Compound | EC50 [nM] |
| --- | --- |
| O=C(Nc1ccc(-c2ccc(C(F)(F)F)cc2)nn1)c1ccc(Oc2cc3c(cc2Cl)C(C(=O)O)CCO3)cc1 (stereo not shown) [Example 98, Sodium 6-chloro-7-(4-(6-(4-(trifluoromethyl)phenyl)pyridazin-3-ylcarbamoyl)phenoxy)chroman-4-carboxylate] | 17.9 |
| O=C(Nc1cccc(-c2ccc(Cl)cc2)n1)c1ccc(Oc2c(Cl)cc3c(c2C2CC2)OCCC3C(=O)O)cc1 (stereo not shown) [Example 108, Sodium 6-chloro-7-(4-(6-(4-chlorophenyl)pyridin-2-ylcarbamoyl)phenoxy)-8-cyclopropylchroman-4-carboxylate] | 8 |

same assay, conditions: 4% HSA, read-out: EC50 (nM) 4% HSA

| Compound | EC50 [nM] |
| --- | --- |
| O=C(Nc1cccc(-c2cccc(F)c2F)n1)c1ccc(Oc2cc3c(cc2Cl)C(C(=O)O)CCO3)cc1 (stereo not shown) [Example 90, 6-chloro-7-(4-(6-(2,3-difluorophenyl)pyridin-2-ylcarbamoyl)phenoxy)chroman-4-carboxylic acid] | 166 |
| CC(C)(C)Sc1cccc(NC(=O)c2ccc(Oc3cc4c(cc3Cl)C(C(=O)O)CCO4)cc2)n1 (stereo not shown) [Example 91, 7-(4-(6-(tert-Butylthio)pyridin-2-ylcarbamoyl)phenoxy)-6-chlorochroman-4-carboxylic acid] | 897 |
| O=C(Nc1cncc(-c2cccc(Cl)c2)n1)c1ccc(Oc2cc3c(cc2Cl)C(C(=O)O)CCO3)cc1 (stereo not shown) [Example 92, 6-Chloro-7-(4-(6-(3-chlorophenyl)pyrazin-2-ylcarbamoyl)phenoxy)chroman-4-carboxylic acid] | 415 |
| O=C(Nc1cncc(-c2ccc(C(F)(F)F)cc2)n1)c1ccc(Oc2cc3c(cc2Cl)C(C(=O)O)CCO3)cc1 (stereo not shown) [Example 93, 6-Chloro-7-(4-(6-(4-(trifluoromethyl)phenyl)pyrazin-2-ylcarbamoyl)phenoxy)chroman-4-carboxylic acid] | 80.5 |
| O=C(Nc1cncc(-c2cccc(C(F)(F)F)c2)n1)c1ccc(Oc2cc3c(cc2Cl)C(C(=O)O)CCO3)cc1 (stereo not shown) [Example 94, 6-chloro-7-(4-(6-(3-(trifluoromethyl)phenyl)pyrazin-2-ylcarbamoyl)phenoxy)chroman-4-carboxylic acid] | 208 |
| O=C(Nc1cnc(-c2ccc(Cl)cc2)cn1)c1ccc(Oc2cc3c(cc2Cl)C(C(=O)O)CCO3)cc1 (stereo not shown) [Example 95, 6-Chloro-7-(4-(5-(4-chlorophenyl)pyrazin-2-ylcarbamoyl)phenoxy)chroman-4-carboxylic acid] | 365 |
| O=C(Nc1cnc(-c2cccc(Cl)c2)cn1)c1ccc(Oc2cc3c(cc2Cl)C(C(=O)O)CCO3)cc1 (stereo not shown) [Example 96, 6-Chloro-7-(4-(5-(3-chlorophenyl)pyrazin-2-ylcarbamoyl)phenoxy)chroman-4-carboxylic acid] | 274 |
| O=C(Nc1ccc(-c2cccc(Cl)c2)nn1)c1ccc(Oc2cc3c(cc2Cl)C(C(=O)O)CCO3)cc1 (stereo not shown) [Example 97, 6-Chloro-7-(4-(6-(3-chlorophenyl)pyridazin-3-ylcarbamoyl)phenoxy)chroman-4-carboxylic acid] | 203 |
| O=C(Nc1ccc(-c2ccc(C(F)(F)F)cc2)nn1)c1ccc(Oc2cc3c(cc2Cl)C(C(=O)O)CCO3)cc1 (stereo not shown) [Example 98, Sodium 6-chloro-7-(4-(6-(4-(trifluoromethyl)phenyl)pyridazin-3-ylcarbamoyl)phenoxy)chroman-4-carboxylate] | 112 |
| O=C(Nc1ccc(-c2cccc(C(F)(F)F)c2)nn1)c1ccc(Oc2cc3c(cc2Cl)C(C(=O)O)CCO3)cc1 (stereo not shown) [Example 99, Sodium 6-chloro-7-(4-(6-(3-(trifluoromethyl)phenyl)pyridazin-3-ylcarbamoyl)phenoxy)chroman-4-carboxylate] | 235 |
| O=C(Nc1ccnc(-c2ccc(Cl)cc2)n1)c1ccc(Oc2cc3c(cc2Cl)C(C(=O)O)CCO3)cc1 (stereo not shown) [Example 100, sodium 6-chloro-7-(4-(2-(4-chlorophenyl)pyrimidin-4-ylcarbamoyl)phenoxy)chroman-4-carboxylate] | 46 |
| Cc1nc(NC(=O)c2ccc(Oc3cc4c(cc3Cl)C(C(=O)O)CCO4)cc2)cc(-c2ccc(Cl)cc2)n1 (stereo not shown) [Example 101, Sodium 6-chloro-7-(4-(6-(4-chlorophenyl)-2-methylpyrimidin-4-ylcarbamoyl)phenoxy)chroman-4-carboxylate] | 998 |
| Cc1cc(NC(=O)c2ccc(Oc3cc4c(cc3Cl)C(C(=O)O)CCO4)cc2)nc(-c2ccc(C(F)(F)F)cc2)n1 (stereo not shown) [Example 102, Sodium 6-chloro-7-(4-(6-methyl-2-(4-(trifluoromethyl)phenyl)pyrimidin-4-ylcarbamoyl)phenoxy)chroman-4-carboxylate] | 21.2 |

Now from value to compound:

| EC50 [nM] | Compound |
| --- | --- |
| 57.1 | O=C(Nc1cccc(-c2ccc(Cl)cc2Cl)n1)c1ccc(Oc2cc3c(cc2Cl)C(C(=O)O)CCO3)cc1 (stereo not shown) [Example 103, Sodium 6-chloro-7-(4-(6-(2,4-dichlorophenyl)pyridin-2-ylcarbamoyl)phenoxy)chroman-4-carboxylate] |
| 116 | COc1cc(Cl)ccc1-c1cccc(NC(=O)c2ccc(Oc3cc4c(cc3Cl)C(C(=O)O)CCO4)cc2)n1 (stereo not shown) [Example 104, Sodium 6-chloro-7-(4-(6-(4-chloro-2-methoxyphenyl)pyridin-2-ylcarbamoyl)phenoxy)chroman-4-carboxylate] |
| 133 | CC(C)Cc1cccc(NC(=O)c2ccc(Oc3cc4c(cc3Cl)C(C(=O)O)CCO4)cc2)n1 (stereo not shown) [Example 105, 6-Chloro-7-(4-(6-isobutylpyridin-2-ylcarbamoyl)phenoxy)chroman-4-carboxylic acid] |
| 87.7 | O=C(Nc1cccc(-c2ccc(Cl)cc2)n1)c1ccc(Oc2c(Cl)cc3c(c2Br)OCCC3C(=O)O)cc1 (stereo not shown) [Example 106, Sodium 8-bromo-6-chloro-7-(4-(6-(4-chlorophenyl)pyridin-2-ylcarbamoyl)phenoxy)chroman-4-carboxylate] |
| 52.2 | O=C(Nc1cccc(-c2ccc(Cl)cc2)n1)c1ccc(Oc2c(C3CC3)cc3c(c2C2CC2)OCCC3C(=O)O)cc1 (stereo not shown) [Example 107, Sodium 7-(4-(6-(4-chlorophenyl)pyridin-2-ylcarbamoyl)phenoxy)-6,8-dicyclopropylchroman-4-carboxylate] |
| 144 | O=C(Nc1cccc(-c2ccc(Cl)cc2)n1)c1ccc(Oc2c(Cl)cc3c(c2C2CC2)OCCC3C(=O)O)cc1 (stereo not shown) [Example 108, Sodium 6-chloro-7-(4-(6-(4-chlorophenyl)pyridin-2-ylcarbamoyl)phenoxy)-8-cyclopropylchroman-4-carboxylate] |
| 129 | O=C(Nc1cccc(-c2ccc(F)cc2)n1)c1ccc(Oc2cc3c(cc2Cl)C(C(=O)O)CCO3)cc1 (stereo not shown) [Example 109, 6-Chloro-7-(4-(6-(4-fluorophenyl)pyridin-2-ylcarbamoyl)phenoxy)chroman-4-carboxylic acid] |
| 25.2 | O=C(Nc1cccc(-c2ccc(C(F)(F)F)cc2)n1)c1ccc(Oc2cc3c(cc2Cl)C(C(=O)O)CCO3)cc1 (stereo not shown) [Example 110, 6-Chloro-7-(4-(6-(4-(trifluoromethyl)phenyl)pyridin-2-ylcarbamoyl)phenoxy)chroman-4-carboxylic acid] |
| 1460 | O=C(Nc1cccc(C2CC2)n1)c1ccc(Oc2cc3c(cc2Cl)C(C(=O)O)CCO3)cc1 (stereo not shown) [Example 111, 6-Chloro-7-(4-(6-cyclopropylpyridin-2-ylcarbamoyl)phenoxy)chroman-4-carboxylic acid] |
| 46 | O=C(Nc1cccc(-c2cccc(C(F)(F)F)c2)n1)c1ccc(Oc2cc3c(cc2Cl)C(C(=O)O)CCO3)cc1 (stereo not shown) [Example 112, 6-Chloro-7-(4-(6-(3-(trifluoromethyl)phenyl)pyridin-2-ylcarbamoyl)phenoxy)chroman-4-carboxylic acid] |
| 452 | O=C(Nc1cccc(-c2ccnc(C(F)(F)F)c2)n1)c1ccc(Oc2cc3c(cc2Cl)C(C(=O)O)CCO3)cc1 (stereo not shown) [Example 113, 6-Chloro-7-(4-(2′-(trifluoromethyl)-2,4′-bipyridin-6-ylcarbamoyl)phenoxy)chroman-4-carboxylic acid] |
| 276 | CC(C)(C)c1cccc(NC(=O)c2ccc(Oc3cc4c(cc3Cl)C(C(=O)O)CCO4)cc2)n1 (stereo not shown) [Example 114, 7-(4-(6-tert-Butylpyridin-2-ylcarbamoyl)phenoxy)-6-chlorochroman-4-carboxylic acid] |
| 342 | O=C(Nc1ccc(-c2ccc(Cl)cc2)cn1)c1ccc(Oc2cc3c(cc2Cl)C(C(=O)O)CCO3)cc1 (stereo not shown) [Example 115, 6-Chloro-7-(4-(5-(4-chlorophenyl)pyridin-2-ylcarbamoyl)phenoxy)chroman-4-carboxylic acid] |
| 82.8 | O=C(Nc1ccc(-c2cccc(Cl)c2)cn1)c1ccc(Oc2cc3c(cc2Cl)C(C(=O)O)CCO3)cc1 (stereo not shown) [Example 116, 6-Chloro-7-(4-(5-(3-chlorophenyl)pyridin-2-ylcarbamoyl)phenoxy)chroman-4-carboxylic acid] |
| 264 | O=C(Nc1ccc(-c2ccccc2Cl)cn1)c1ccc(Oc2cc3c(cc2Cl)C(C(=O)O)CCO3)cc1 (stereo not shown) [Example 117, 6-Chloro-7-(4-(5-(2-chlorophenyl)pyridin-2-ylcarbamoyl)phenoxy)chroman-4-carboxylic acid] |
| 100 | O=C(Nc1ccc(-c2ccc(C(F)(F)F)cc2)cn1)c1ccc(Oc2cc3c(cc2Cl)C(C(=O)O)CCO3)cc1 (stereo not shown) [Example 118, 6-Chloro-7-(4-(5-(4-(trifluoromethyl)phenyl)pyridin-2-ylcarbamoyl)phenoxy)chroman-4-carboxylic acid] |
| 422 | O=C(Nc1ccc(-c2cccc(C(F)(F)F)c2)cn1)c1ccc(Oc2cc3c(cc2Cl)C(C(=O)O)CCO3)cc1 (stereo not shown) [Example 119] |
| 2730 | O=C(Nc1cc(-c2ccc(Cl)cc2)ccn1)c1ccc(Oc2cc3c(cc2Cl)C(C(=O)O)CCO3)cc1 (stereo not shown) [Example 120, 6-Chloro-7-(4-(4-(4-chlorophenyl)pyridin-2-ylcarbamoyl)phenoxy)chroman-4-carboxylic acid] |
| 1890 | O=C(Nc1cc(-c2cccc(Cl)c2)ccn1)c1ccc(Oc2cc3c(cc2Cl)C(C(=O)O)CCO3)cc1 (stereo not shown) [Example 121, 6-Chloro-7-(4-(4-(3-chlorophenyl)pyridin-2-ylcarbamoyl)phenoxy)chroman-4-carboxylic acid] |

Reference: patent US8785445B2 (Array BioPharma Inc., priority 2008, dated 2014)
